This is an account of results in patent US8258175B2, “Isoindolin-1-one derivatives” (Cancer Research Technology Limited, priority 2004, dated 2012).

Where no end group is shown, it is not given here. Bounds are passed on as bounds.

Series [1] concerns the target T1, MDM2-p53 interaction (Homo sapiens, UniProt Q00987).
T1 construct: made in house; host or cells: in vitro translation (cell-free)
Briefly: Preliminary screening, in vitro MDM2-p53 binding assay. The settings on record: preliminary screening studies; read-out: IC50 (inhibition of the MDM2-p53 interaction). The source says: Studies of the p53 binding pocket on the MDM2 protein guided the nature of the molecules synthesised. Thus the present invention provides small molecule inhibitors of MDM2-p53 interaction based on an isoindolinone scaffold.

In series [2] the target is T1, MDM2-p53 interaction. Kind of series: ELISA assay of MDM2-p53 complex formation (MDM2 binding to immobilised IP3 p53-derived peptide). The conditions noted are these: n=3 independent determinations; 5% DMSO; interpolated from three standard concentrations. How it is done:
Streptavidin-coated 96-well plates are used to immobilise a biotin-tagged IP3 p53-derived peptide ([…]). This is a peptide analogue derived from the p53 binding site for MDM2 ([…]). […] Aliquots of MDM2 generated by in vitro translation are pre-incubated for 20 minutes at room temperature (i.e. 20-25° C.) with test compounds and controls, before transfer into the IP3-coated 96-well plates. Following a further incubation period of 90 minutes at 4° C., the plates are washed to remove unbound MDM2 and the residual bound MDM2 is detected using a primary monoclonal antibody (MDM2 Ab-1, clone IF2, Oncogene Research Products) and HRP-conjugated secondary antibody (Goat anti-mouse, Dako PO447). The HRP (horseradish peroxidase) is measured by a chemiluminescence reaction using standard reagents (Amersham Pharmacia™ RPN 2106) and an automatic injection 96-well plate illuminometer (EG & G Berthold Microplate LB 96V).
Compound NU8231 is currently included as a standard “lead compound” positive control. […] The AP peptide is included as a positive control for biological evaluation of the isoindolinones in the cell free binding assays.
All compounds are dissolved in DMSO and tested at three standard concentrations (initially 20 μM, 100 μM and 500 μM) in the presence of a fixed final concentration of 5% DMSO. The percentage inhibition of complex formation is expressed relative to a DMSO only control and an IC50, defined as the concentration required for 50% inhibition of MDM2-p53 complex formation, determined by interpolation.

Series [3] concerns SJSA cells (MDM2 amplified). Briefly: Western blot of SJSA cells treated with compound. The class given is cell-based. The conditions noted are these: SJSA cells, 5, 10 and 20 μM, lysed at 6 hours. As for the experimental part: Osteosarcoma cell line SJSA-1 was plated out in 55 mm dishes at a density of 2.5×10^5 cells in 3 mL of RPMI 1640 medium (Sigma) supplemented with 10% foetal bovine serum (FBS, Gibco), 1% (v/v) HEPES (Gibco), 1% (v/v) sodium pyruvate (Gibco) and 1.25 g/500 ml glucose (Sigma) for 48 hours in a 37° C. humidified incubator (Sanyo, MCO 20AIC) at a CO2 concentration of 5%.
The dishes were treated with NU8231 at a final concentration of 5, 10, and 20 μM (at 1% DMSO) together with a 1% DMSO and an untreated control sample for 6 hours. The medium was then aspirated and the dishes were washed with 3 mL of cold PBS. The cells were then lysed in 40 μL of Sodium Dodecyl Sulphate (SDS, Sigma) lysis buffer, boiled at 100° C. for 10 minutes before sonication for 3×5 seconds at 20 microns (Soniprep 150, MSE).
The protein concentration for each of the samples was then determined using BCA Protein Assay Kit (Pierce), and 1:1 loading buffer consisting of β-mercaptoethanol (Sigma) and 0.5% bromophonol-blue (Sigma) were added to 40 μg of protein and made up to a final volume of 30 μL and boiled for 5 minutes at 100° C.
The samples were then loaded onto a precast 4-20% gradient polyacrylamide Tris-Glycine gels (15 wells, 1.5 mm thickness, Invitrogen Life Technologies), along with a pre-stained marker protein (SeeBlue, Invitrogen). The Gels were processed in Novex XCell (Invitrogen) at 180V and blotted onto a High Bond C membrane (Amersham Life Science) overnight at 30V.
The membrane was then blocked for one hour at room temperature in TBS-Tween containing 5% non-fat milk (TBST-M) followed by incubation with primary antibodies for MDM2 (MDM2-Ab1, 1:500, Oncogene), p53 (p53-D07, 1:1000, Novacastra), p21 (p21 Ab1, 1:100, Oncogene) and Actin (Actin AC40, 1:1000, Sigma) in PBST-M for 1 hour.
The membrane was then washed three times in TBST (15 minutes per wash) and then incubated for an additional 1 hour with a anti mouse or a rabbit horseradish peroxidase (HRP) secondary antibody (Dako, 1:1000) in PBST-M followed by a final wash consisting of six washes with TBST at 5 minutes per wash. […]
For orientation: Immunoblotting shows a protein as a band on a membrane.

The target in the next series is MDM2 (Homo sapiens, UniProt Q00987). The conditions noted are these: Stoll et al 2001; cited from earlier work.
Chain of MDM2 (Q00987 whole entry): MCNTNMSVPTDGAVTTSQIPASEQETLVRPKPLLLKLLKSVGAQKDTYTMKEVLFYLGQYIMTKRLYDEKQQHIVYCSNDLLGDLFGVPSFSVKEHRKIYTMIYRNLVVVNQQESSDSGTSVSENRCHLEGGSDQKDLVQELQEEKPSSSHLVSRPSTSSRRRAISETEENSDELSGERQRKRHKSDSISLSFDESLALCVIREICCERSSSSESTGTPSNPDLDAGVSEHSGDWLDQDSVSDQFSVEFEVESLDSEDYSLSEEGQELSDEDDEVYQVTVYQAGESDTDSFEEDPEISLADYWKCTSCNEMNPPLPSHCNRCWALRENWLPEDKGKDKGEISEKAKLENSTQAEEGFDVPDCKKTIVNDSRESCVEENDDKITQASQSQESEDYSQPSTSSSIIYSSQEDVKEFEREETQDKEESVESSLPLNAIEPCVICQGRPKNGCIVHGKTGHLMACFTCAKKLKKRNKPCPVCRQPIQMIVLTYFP

T1 sequence (Q00987 whole entry): as above

Usually IC50 stands for the concentration needed to halve the response being measured. Regarding `CCCOC1(c2ccccc2)c2ccccc2C(=O)N1Cc1ccccc1` (centres unmarked) [NU8001, 2-benzyl-3-phenyl-3-propoxy isoindolin-1-one], at MDM2-p53 interaction [1], the IC50 was ~200 µM.

For `CCCNC1(c2ccccc2)c2ccccc2C(=O)N1Cc1ccccc1` (centres unmarked) [NU8006, 2-benzyl-3-phenyl-3-(propylamino)isoindolin-1-one], the IC50 on MDM2-p53 interaction [1] is ~200 µM. In the case of `CCCOC1(c2ccccc2)c2ccccc2C(=O)N1CCC` (centres unmarked) [NU8009, 2-propyl-3-phenyl-3-propoxy isoindolinin-1-one], the IC50 at MDM2-p53 interaction [1] was ~200 µM. As usually defined, the melting point is the temperature of the solid-liquid transition. In turn, `CCCN1C(=O)c2ccccc2C1(OCc1ccc(C(C)(C)C)cc1)c1ccc(Cl)cc1` (centres unmarked) [NU8221, 3-(4-tert-Butyl-benzyloxy)-3-(4-chlorophenyl)-2-propyl-2,3-dihydroisoindolin-1-one] showed a melting point of 116.5 to 117.6 °C. At MDM2-p53 interaction [2], the IC50 was found to be 187 ± 38 µM. On the same counts, the results for `CCCN1C(=O)c2ccccc2C1(OCc1ccc(C(C)(C)C)cc1)c1ccccc1` (centres unmarked) [NU8223, 3-(4-tert-Butylbenzyloxy)-3-phenyl-2-propyl-2,3-dihydroisoindolin-1-one] are 118.7 to 119.9 °C and > 500 µM. `CCCN1C(=O)c2ccccc2C1(OCc1cc(OC)c(O)c(OC)c1)c1ccc(Cl)cc1` (centres unmarked) [NU8231, 3-(4-Chlorophenyl)-3-(4-hydroxy-3,5-dimethoxybenzyloxy)-2-propyl-2,3-dihydroisoindolin-1-one]: in series [3], the “MDM2 level (Western blot)” value is given as “dose dependent increase”, the “p21 level (Western blot)” value is listed as “dose dependent increase” and the “p53 levels (Western blot)” value was “No change”. As for “IP3: biotin-tagged p53-derived peptide (MPRFMDYWEGLN), analogue derived from the p53 binding site for MDM2 (also: biotin tag, place not given here)”, the “affinity for MDM2 relative to the native p53 peptide” value with MDM2 was “higher affinity for MDM2 than the native peptide”.
